Experiments:
trypanosomiasis = settings: free drug, cited from earlier work; for period of protection (prophylaxis): Samorin at 0.5-1.0 mg/kg, dependent on dosage and tsetse fly challenge
[1] = depot formation at the injection site after intramuscular injection in goats; format: in vivo, goat
Method: An injection site depot from another goat to which free Samorin in aqueous solution was administered by the same route and at the same dosage as that from this Example was noted to be more diffuse.
Liposomal Berenil was recovered from each depot.

[2] = cited from earlier work; for side effects: free drug, 1 mg/kg for homidium and 0.5-1.0 mg/kg for Samorin
[3] = free drug in aqueous solution; cited from earlier work

| SMILES | period of protection (prophylaxis) (trypanosomiasis) | side effects [2] | other results |
| --- | --- | --- | --- |
| N=C(N)c1ccc(N=NNc2ccc(C(=N)N)cc2)cc1 [Berenil, diminazene aceturate] | a few days only |  | depot at the injection site ([1]; goat, intramuscular, 3.5 mg/kg live weight (calculated as active ingredient)): no indication of a depot |
| CC[n+]1c(-c2ccccc2)c2cc(N)ccc2c2ccc(N)cc21 [Homidium chloride, 2,7-diamino-9-phenyl-10-ethylphenanthridinium] | ≤ 60 days |  |  |
| CC[n+]1c(-c2ccccc2)c2cc(NN=Nc3cccc(C(=N)N)c3)ccc2c2ccc(N)cc21.Cl.[Cl-] [Samorin, 8-[(m-amidinophenylazo)amino]-3-amino-5-ethyl-6-phenylphenanthridinium chloride hydrochloride] | 60 to 120 days | reaction by the injected tissue to the drug | dosage with therapeutic trypanocidal action (trypanosomiasis): 0.25 mg/kg; depot at the injection site ([1]; goat culled 15 days after intramuscular administration, 1 mg/kg live weight Samorin): more diffuse |
| CC[n+]1c(-c2ccccc2)c2cc(N)ccc2c2ccc(N)cc21 [homidium, 2,7-diamino-9-phenyl-10-ethylphenanthridinium] |  | infrequent | drug depots after administration of free drug ([2]; intramuscular, free drug in aqueous solution): diffuse staining of muscle tissue |
| CC[n+]1c(-c2ccccc2)c2cc(N/N=N/c3cccc(C(=N)N)c3)ccc2c2ccc(N)cc21.[Cl-] [isometamidium chloride] |  |  | stability in aqueous solution [3]: rapid lability |
